# Data: ChEMBL document CHEMBL3046894, “Synthesis and Herbicidal Activity of Pyrimidinyl Salicylic and Thiosalicylic Acids” (J Pestic Sci, 1996)
# Active and inactive are the calls of the source. The rule behind the calls is not given here.
# Columns and labels:
# Zea mays [1] = experiment: Pre-emergence phytotoxicity against Zea mays (maize) assessed as mortality at 1.6 g a.i/10 a; type: organism-based; details: in vivo, other
# Zea mays [2] = experiment: Post-emergence phytotoxicity against Zea mays (maize) assessed as mortality at 6.3 g a.i/10 a applied 11 days after germination as foliar spray; type: organism-based; details: in vivo, other, 264 h
# Xanthium strumarium [3] = experiment: Pre-emergence herbicidal activity against Xanthium strumarium (cocklebur) assessed as mortality per 10 acre; type: functional
# Gossypium hirsutum [4] = experiment: Pre-emergence phytotoxicity against Gossypium hirsutum (cotton) assessed as mortality at 1.6 g a.i/10 a; type: organism-based; details: in vivo, other
# Xanthium strumarium [5] = experiment: Pre-emergence herbicidal activity against Xanthium strumarium (cocklebur) assessed as mortality at 1.6 g a.i/10 a; type: functional
# Zea mays [6] = experiment: Post-emergence phytotoxicity against Zea mays (maize) assessed as mortality at 1.6 g a.i/10 a applied 11 days after germination as foliar spray; type: organism-based; details: in vivo, other, 264 h
# Amaranthus retroflexus [7] = experiment: Pre-emergence herbicidal activity against Amaranthus retroflexus assessed as mortality per 10 acre; type: functional
# Gossypium hirsutum [8] = experiment: Pre-emergence phytotoxicity against Gossypium hirsutum (cotton) assessed as mortality per 10 acre; type: organism-based; details: in vivo
# Gossypium hirsutum [9] = experiment: (§1) Post-emergence phytotoxicity against Gossypium hirsutum (cotton) assessed as mortality at 1.6 g a.i/10 a applied 11 days after germination as foliar spray; type: organism-based; details: in vivo, other, 264 h
# Echinochloa crus-galli [10] = experiment: Post-emergence herbicidal activity against Echinochloa crus-galli (barnyard grass) assessed as mortality per 10 acre; type: functional
# Ipomoea lacunosa [11] = experiment: Pre-emergence herbicidal activity against Ipomoea lacunosa assessed as mortality per 10 acre; type: functional
# Xanthium strumarium [12] = experiment: Post-emergence herbicidal activity against Xanthium strumarium (cocklebur) assessed as mortality per 10 acre; type: functional
# Glycine max [13] = experiment: Post-emergence phytotoxicity against Glycine max (soybean) assessed as mortality at 6.3 g a.i/10 a applied 11 days after germination as foliar spray; type: organism-based; details: in vivo, other, 264 h
# Gossypium hirsutum [14] = experiment: (§2) Post-emergence phytotoxicity against Gossypium hirsutum (cotton) assessed as mortality at 6.3 g a.i/10 a applied 11 days after germination as foliar spray; type: organism-based; details: in vivo, other, 264 h
# Ipomoea lacunosa [15] = experiment: Post-emergence herbicidal activity against Ipomoea lacunosa assessed as mortality at 6.3 g a.i/10 a applied 11 days after germination as foliar spray; type: functional; details: 264 h
# Ipomoea lacunosa [16] = experiment: Pre-emergence herbicidal activity against Ipomoea lacunosa assessed as mortality at 1.6 g a.i/10 a; type: functional
# Persicaria nodosa [17] = experiment: Pre-emergence herbicidal activity against Persicaria nodosa assessed as mortality per 10 acre; type: functional
# Xanthium strumarium [18] = experiment: Pre-emergence herbicidal activity against Xanthium strumarium (cocklebur) assessed as mortality at 6.3 g a.i/10 a; type: functional
# Zea mays [19] = experiment: Pre-emergence phytotoxicity against Zea mays (maize) assessed as mortality at 6.3 g a.i/10 a; type: organism-based; details: in vivo, other
# [20] = (§3) Pre-emergence phytotoxicity against Glycine max (soybean) assessed as mortality at 1.6 g a.i/10 a; type: organism-based; details: in vivo, 1.6 g a.i/10 a, read-out: Activity
# [21] = Pre-emergence phytotoxicity against Gossypium hirsutum (cotton) assessed as mortality at 6.3 g a.i/10 a; type: organism-based; details: in vivo, 6.3 g a.i/10 a, read-out: Activity
# Ipomoea lacunosa [22] = experiment: Post-emergence herbicidal activity against Ipomoea lacunosa assessed as mortality per 10 acre; type: functional
# Echinochloa crus-galli [23] = experiment: Pre-emergence herbicidal activity against Echinochloa crus-galli (barnyard grass) assessed as mortality per 10 acre; type: functional
# Glycine max [24] = experiment: Pre-emergence phytotoxicity against Glycine max (soybean) assessed as mortality at 6.3 g a.i/10 a; type: organism-based; details: in vivo, other
# Ipomoea lacunosa [25] = experiment: Post-emergence herbicidal activity against Ipomoea lacunosa assessed as mortality at 1.6 g a.i/10 a applied 11 days after germination as foliar spray; type: functional; details: 264 h
# Ipomoea lacunosa [26] = experiment: Pre-emergence herbicidal activity against Ipomoea lacunosa assessed as mortality at 6.3 g a.i/10 a; type: functional
# Persicaria nodosa [27] = experiment: Post-emergence herbicidal activity against Persicaria nodosa assessed as mortality per 10 acre; type: functional
# Amaranthus retroflexus [28] = experiment: Post-emergence herbicidal activity against Amaranthus retroflexus assessed as mortality per 10 acre; type: functional
# Glycine max [29] = experiment: Post-emergence phytotoxicity against Glycine max (soybean) assessed as mortality at 1.6 g a.i/10 a applied 11 days after germination as foliar spray; type: organism-based; details: in vivo, other, 264 h
# Gossypium hirsutum [30] = experiment: Post-emergence phytotoxicity against Gossypium hirsutum (cotton) assessed as mortality per 10 acre; type: organism-based; details: in vivo
# Echinochloa crus-galli [31] = experiment: Post-emergence herbicidal activity against Echinochloa crus-galli (barnyard grass) assessed as mortality at 1.6 g a.i/10 a applied 11 days after germination as foliar spray; type: functional; details: 264 h
# Abutilon theophrasti [32] = experiment: Pre-emergence herbicidal activity against Abutilon theophrasti (velvetleaf) assessed as mortality at 6.3 g a.i/10 a; type: functional
# [33] = as §1; type: organism-based; details: in vivo, 1.6 g a.i/10 a
# Abutilon theophrasti [34] = experiment: Pre-emergence herbicidal activity against Abutilon theophrasti (velvetleaf) assessed as mortality at 1.6 g a.i/10 a; type: functional
# [35] = as §2; type: organism-based; details: in vivo, 6.3 g a.i/10 a
# Echinochloa crus-galli [36] = experiment: Pre-emergence herbicidal activity against Echinochloa crus-galli (barnyard grass) assessed as mortality at 6.3 g a.i/10 a; type: functional
# Glycine max [37] = experiment: as §3; type: organism-based; details: in vivo, other
smiles,measurement,setting,value
COc1cc(OC)nc(Sc2cccc(C)c2C(=O)O)n1,Activity,Zea mays [1],Toxic
same,Activity,Zea mays [2],Toxic
same,ED90,Xanthium strumarium [3],25 gAi
same,Activity,Gossypium hirsutum [4],< 50%
same,Activity,Xanthium strumarium [5],<50%
same,Activity,Zea mays [6],Toxic
same,ED90,Amaranthus retroflexus [7],Active
same,ED20,Gossypium hirsutum [8],100 gAi
same,Activity,Gossypium hirsutum [9],Non-toxic
same,ED90,Echinochloa crus-galli [10],100 gAi
same,ED90,Ipomoea lacunosa [11],50 gAi
same,ED90,Xanthium strumarium [12],25 gAi
same,Activity,Glycine max [13],Toxic
same,Activity,Gossypium hirsutum [14],Non-toxic
same,mortality at 63 g/ha,Ipomoea lacunosa [15],< 5%
same,Activity,Ipomoea lacunosa [16],<50%
same,ED90,Persicaria nodosa [17],Active
same,Activity,Xanthium strumarium [18],<50%
same,Activity,Zea mays [19],Toxic
same,mortality,[20],< 50%
same,mortality,[21],< 50%
same,ED90,Ipomoea lacunosa [22],50 gAi
same,ED90,Echinochloa crus-galli [23],100 gAi
same,Activity,Glycine max [24],Non-toxic
same,mortality at 16 g/ha,Ipomoea lacunosa [25],< 5%
same,Activity,Ipomoea lacunosa [26],<50%
same,ED90,Persicaria nodosa [27],Active
same,ED90,Amaranthus retroflexus [28],Active
same,Activity,Glycine max [29],Toxic
same,ED20,Gossypium hirsutum [30],100 gAi
same,mortality at 16 g/ha,Echinochloa crus-galli [31],< 5%
COc1cc(OC)nc(Sc2cccc(C(F)(F)F)c2C(=O)O)n1,Activity,Zea mays [1],Non-toxic
same,Activity,Abutilon theophrasti [32],<50%
same,Activity,Zea mays [2],Toxic
same,Activity,Gossypium hirsutum [4],< 50%
same,Activity,Zea mays [6],Toxic
same,mortality at 264 h,[33],< 5%
same,Activity,Abutilon theophrasti [34],<50%
same,Activity,Glycine max [13],Toxic
same,mortality at 264 h,[35],< 5%
same,Activity,Ipomoea lacunosa [16],<50%
same,Activity,Echinochloa crus-galli [36],>90%
same,Activity,Zea mays [19],Toxic
same,Activity,Glycine max [37],Non-toxic
same,mortality,[21],< 50%
same,Activity,Glycine max [24],Toxic
same,Activity,Ipomoea lacunosa [26],<50%
same,Activity,Glycine max [29],Toxic
same,mortality at 16 g/ha,Echinochloa crus-galli [31],< 5%
